The record followed here is US20240132431A1, “METHOD FOR ALKYLATING ACIDIC FUNCTIONAL GROUP” (Chugai Seiyaku Kabushiki Kaisha, priority 2021, published 2024).

This experiment has as its target T1, Bcl-2 protein (Recombinant Human Bcl-2 Protein) (Homo sapiens, UniProt P10415).
T1 construct: purchased Novus NBP2-34889
In words: Binding evaluation of mixture library compounds to Bcl-2 using AS-MS (affinity selection mass spectrometry). Particulars: for ASMS ratio (%) n = 1 / ASMS ratio (%) n = 2: AS-MS, mixture library, Bcl-2, ASMS Ratio(%)=(A−C)/B×100; for ASMS ratio (%) n = 1: replicate n = 1; for ASMS ratio (%) n = 2: replicate n = 2. The essentials: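 Readout is ASMS Ratio (%), (A−C)/B×100, from reversed-phase LC/MS of SEC-passed extracts, with protein-free unfiltered standard (B) and protein-free SEC blank (C). Recombinant human Bcl-2 at 20 μM final met ~1200 pooled compounds at […] each for 1 h, 23° C., dark, in Tris-HCl pH 7.4 buffer.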

The structures appear in SMILES notation.

T1 sequence (P10415 whole entry): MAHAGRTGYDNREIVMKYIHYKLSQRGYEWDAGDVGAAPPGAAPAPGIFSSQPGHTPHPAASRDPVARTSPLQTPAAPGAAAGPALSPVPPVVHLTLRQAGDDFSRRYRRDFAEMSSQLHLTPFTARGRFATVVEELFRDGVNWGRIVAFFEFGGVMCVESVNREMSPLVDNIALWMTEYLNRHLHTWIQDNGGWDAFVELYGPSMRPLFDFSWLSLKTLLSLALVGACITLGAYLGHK

`CCOc1cccc(-c2cc(OC)c(CN3CCN(c4ccc(C(=O)NS(=O)(=O)CCC(F)(F)F)nn4)CC3)c(OC)c2)c1` [B2N085-01]: the “ASMS ratio (%)” value (n = 1) stood at 0.0% and the “ASMS ratio (%)” value (n = 2) is 0.0%.
With `CCOc1cncc(-c2cc(OC)c(CN3CCN(c4ccc(C(=O)NS(=O)(=O)CCC(F)(F)F)nn4)CC3)c(OC)c2)c1` [B2N086-01, 6-[4-[[4-(5-Ethoxypyridin-3-yl)-2,6-dimethoxyphenyl]methyl]piperazin-1-yl]-N-(3,3,3-trifluoropropylsulfonyl)pyridazine-3-carboxamide], the “ASMS ratio (%)” value is on record as 0.0% (n = 1) and 0.0% (n = 2).
Consider `CCOc1cccc(-c2cc(CN3CCN(c4ccc(C(=O)NS(=O)(=O)CCC(F)(F)F)nn4)CC3)cc(C(F)(F)F)c2)c1` [B2N087-01], for which the “ASMS ratio (%)” value reads like this: (n = 1) 0.0%; (n = 2) 0.0%.
Turning to `CCOc1cncc(-c2cc(CN3CCN(c4ccc(C(=O)NS(=O)(=O)CCC(F)(F)F)nn4)CC3)cc(C(F)(F)F)c2)c1` [B2N088-01, 6-[4-[3-(5-Ethoxypyridin-3-yl)-5-(trifluoromethyl)phenylmethyl]piperazin-1-yl]-N-(3,3,3-trifluoropropylsulfonyl)pyridazine-3-carboxamide], the “ASMS ratio (%)” value runs as follows: (n = 1) 0.0%; (n = 2) 0.0%.
`CCOc1cccc(-c2cc(CN3CCN(c4ccc(C(=O)NS(=O)(=O)CCC(F)(F)F)nn4)CC3)cc(OC(F)(F)F)c2)c1` [B2N089-01, 6-[4-[[3-(3-Ethoxyphenyl)-5-(trifluoromethoxy)phenyl]methyl]piperazin-1-yl]-N-(3,3,3-trifluoropropylsulfonyl)pyridazine-3-carboxamide]: where the note is “n = 2”, the “ASMS ratio (%)” value is given as 0.0%.
Regarding `CCOc1cncc(-c2cc(CN3CCN(c4ccc(C(=O)NS(=O)(=O)CCC(F)(F)F)nn4)CC3)cc(OC(F)(F)F)c2)c1` [B2N090-01, 6-[4-[[3-(5-Ethoxypyridin-3-yl)-5-(trifluoromethoxy)phenyl]methyl]piperazin-1-yl]-N-(3,3,3-trifluoropropylsulfonyl)pyridazine-3-carboxamide], the “ASMS ratio (%)” value was found to be 0.0% (n = 1) and 0.0% (n = 2).
Turning to `CCOc1cccc(-c2ccc(CN3CCN(c4ccc(C(=O)NS(=O)(=O)CCC(F)(F)F)nn4)CC3)c3ccccc23)c1` [B2N091-01, 6-[4-[[4-(3-Ethoxyphenyl)naphthalen-1-yl]methyl]piperazin-1-yl]-N-(3,3,3-trifluoropropylsulfonyl)pyridazine-3-carboxamide], the “ASMS ratio (%)” value stood at 0.0% (n = 1) and 0.0% (n = 2).
As for `CCOc1cncc(-c2ccc(CN3CCN(c4ccc(C(=O)NS(=O)(=O)CCC(F)(F)F)nn4)CC3)c3ccccc23)c1` [B2N092-01], the “ASMS ratio (%)” value by setting is: (n = 1) 0.0%; (n = 2) 0.0%.
As for `CCOc1cccc(-c2csc(CN3CCN(c4ccc(C(=O)NS(=O)(=O)CCC(F)(F)F)nn4)CC3)c2)c1` [B2N093-01, 6-[4-[[4-(3-Ethoxyphenyl)thiophen-2-yl]methyl]piperazin-1-yl]-N-(3,3,3-trifluoropropylsulfonyl)pyridazine-3-carboxamide], the “ASMS ratio (%)” value (n = 1) came to 0.0%.
For `CCOc1cncc(-c2csc(CN3CCN(c4ccc(C(=O)NS(=O)(=O)CCC(F)(F)F)nn4)CC3)c2)c1` [B2N094-01, 6-[4-[[4-(5-Ethoxypyridin-3-yl)thiophen-2-yl]methyl]piperazin-1-yl]-N-(3,3,3-trifluoropropylsulfonyl)pyridazine-3-carboxamide], the “ASMS ratio (%)” value (n = 1) was determined as 0.0% and the “ASMS ratio (%)” value (n = 2) was 0.0%.
As to `CCOc1cccc(C#Cc2ccccc2CN2CCN(c3ccc(C(=O)NS(=O)(=O)CCC(F)(F)F)nn3)CC2)c1` [B2N095-01, 6-[4-[[2-[2-(3-Ethoxyphenyl)ethynyl]phenyl]methyl]piperazin-1-yl]-N-(3,3,3-trifluoropropylsulfonyl)pyridazine-3-carboxamide], the “ASMS ratio (%)” value is, setting by setting: (n = 1) 0.0%; (n = 2) 0.0%.
With `CCOc1cccc(-c2ccc(C(C)N3CCN(c4ccc(C(=O)NS(=O)(=O)CCC(F)(F)F)cc4)CC3)cc2)c1` (stereo not shown) [B2N097-01, 4-[4-[1-[4-(3-Ethoxyphenyl)phenyl]ethyl]piperazin-1-yl]-N-(3,3,3-trifluoropropylsulfonyl)benzamide], the “ASMS ratio (%)” value runs as follows: (n = 1) 0.0%; (n = 2) 0.0%.
In the case of `CCOc1cncc(-c2ccc(C(C)N3CCN(c4ccc(C(=O)NS(=O)(=O)CCC(F)(F)F)cc4)CC3)cc2)c1` (stereo not shown) [B2N098-01, 4-[4-[1-[4-(5-Ethoxypyridin-3-yl)phenyl]ethyl]piperazin-1-yl]-N-(3,3,3-trifluoropropylsulfonyl)benzamide], the “ASMS ratio (%)” value by setting is: (n = 1) 0.0%; (n = 2) −0.7%.
Regarding `CCOc1cccc(-c2ccc(C(C)N3CCN(c4ccc(C(=O)NS(=O)(=O)CCC(F)(F)F)cc4)CC3)c(F)c2)c1` (stereo not shown) [B2N099-01, 4-[4-[1-[4-(3-Ethoxyphenyl)-2-fluorophenyl]ethyl]piperazin-1-yl]-N-(3,3,3-trifluoropropylsulfonyl)benzamide], the “ASMS ratio (%)” value was 0.0% (n = 1) and 0.0% (n = 2).
Turning to `CCOc1cncc(-c2ccc(C(C)N3CCN(c4ccc(C(=O)NS(=O)(=O)CCC(F)(F)F)cc4)CC3)c(F)c2)c1` (stereo not shown) [B2N100-01, 4-[4-[1-[4-(5-Ethoxypyridin-3-yl)-2-fluorophenyl]ethyl]piperazin-1-yl]-N-(3,3,3-trifluoropropylsulfonyl)benzamide], the “ASMS ratio (%)” value was 0.0% (n = 1) and 0.0% (n = 2).
On to `CCOc1cccc(-c2csc(C(=O)N3CCN(c4ccc(C(=O)NS(=O)(=O)c5ccc(NCCSc6ccccc6)c([N+](=O)[O-])c5)nn4)CC3)c2)c1` [B2Q001-01, 6-[4-[4-(3-Ethoxyphenyl)thiophene-2-carbonyl]piperazin-1-yl]-N-[3-nitro-4-(2-phenylsulfanylethylamino)phenyl]sulfonylpyridazine-3-carboxamide], for which the “ASMS ratio (%) n = 1” value was 0.0% and the “ASMS ratio (%) n = 2” value was determined as 0.0%.
For the compound `CCOc1cncc(-c2csc(C(=O)N3CCN(c4ccc(C(=O)NS(=O)(=O)c5ccc(NCCSc6ccccc6)c([N+](=O)[O-])c5)nn4)CC3)c2)c1` [B2Q002-01, 6-[4-[4-(5-Ethoxypyridin-3-yl)thiophene-2-carbonyl]piperazin-1-yl]-N-[3-nitro-4-(2-phenylsulfanylethylamino)phenyl]sulfonylpyridazine-3-carboxamide], the “ASMS ratio (%) n = 1” value is reported as 24.5% and the “ASMS ratio (%) n = 2” value was determined as 17.2%.
In the case of `CCOc1cccc(-c2ccc(C(=O)N3CCN(c4ccc(C(=O)NS(=O)(=O)c5ccc(NCCSc6ccccc6)c([N+](=O)[O-])c5)nn4)CC3)cc2C)c1` [B2Q003-01, 6-[4-[4-(3-Ethoxyphenyl)-3-methylbenzoyl]piperazin-1-yl]-N-[3-nitro-4-(2-phenylsulfanylethylamino)phenyl]sulfonylpyridazine-3-carboxamide], the “ASMS ratio (%) n = 1” value is recorded as 8.2% and the “ASMS ratio (%) n = 2” value stood at 6.9%.
For `CCOc1cncc(-c2ccc(C(=O)N3CCN(c4ccc(C(=O)NS(=O)(=O)c5ccc(NCCSc6ccccc6)c([N+](=O)[O-])c5)nn4)CC3)cc2C)c1` [B2Q004-01, 6-[4-[4-(5-Ethoxypyridin-3-yl)-3-methylbenzoyl]piperazin-1-yl]-N-[3-nitro-4-(2-phenylsulfanylethylamino)phenyl]sulfonylpyridazine-3-carboxamide] the same measures were 10.7% and 8.7%.
For `CCOc1cccc(-c2ccc(C(=O)N3CCN(c4ccc(C(=O)NS(=O)(=O)c5ccc(NCCSc6ccccc6)c([N+](=O)[O-])c5)nn4)CC3)cc2F)c1` [B2Q005-01, 6-[4-[4-(3-Ethoxyphenyl)-3-fluorobenzoyl]piperazin-1-yl]-N-[3-nitro-4-(2-phenylsulfanylethylamino)phenyl]sulfonylpyridazine-3-carboxamide] the same measures were 12.5% and 15.3%.
The corresponding values for `CCOc1cncc(-c2ccc(C(=O)N3CCN(c4ccc(C(=O)NS(=O)(=O)c5ccc(NCCSc6ccccc6)c([N+](=O)[O-])c5)nn4)CC3)cc2F)c1` [B2Q006-01, 6-[4-[4-(5-Ethoxypyridin-3-yl)-3-fluorobenzoyl]piperazin-1-yl]-N-[3-nitro-4-(2-phenylsulfanylethylamino)phenyl]sulfonylpyridazine-3-carboxamide] are 9.5% and 2.2%.
Consider `CCOc1cccc(C#Cc2ccccc2C(=O)N2CCN(c3ccc(C(=O)NS(=O)(=O)c4ccc(NCCSc5ccccc5)c([N+](=O)[O-])c4)nn3)CC2)c1` [B2Q007-01, 6-[4-[2-[2-(3-Ethoxyphenyl)ethynyl]benzoyl]piperazin-1-yl]-N-[3-nitro-4-(2-phenylsulfanylethylamino)phenyl]sulfonylpyridazine-3-carboxamide], for which the “ASMS ratio (%) n = 1” value came out at 4.2% and the “ASMS ratio (%) n = 2” value is −8.3%.
On to `CCOc1cncc(C#Cc2ccccc2C(=O)N2CCN(c3ccc(C(=O)NS(=O)(=O)c4ccc(NCCSc5ccccc5)c([N+](=O)[O-])c4)nn3)CC2)c1` [B2Q008-01, 6-[4-[2-[2-(5-Ethoxypyridin-3-yl)ethynyl]benzoyl]piperazin-1-yl]-N-[3-nitro-4-(2-phenylsulfanylethylamino)phenyl]sulfonylpyridazine-3-carboxamide], for which the “ASMS ratio (%) n = 1” value is reported as 16.5% and the “ASMS ratio (%) n = 2” value is recorded as 0.5%.
Consider `CCOc1cccc(C#Cc2cncc(C(=O)N3CCN(c4ccc(C(=O)NS(=O)(=O)c5ccc(NCCSc6ccccc6)c([N+](=O)[O-])c5)nn4)CC3)c2)c1` [B2Q009-01, 6-[4-[5-[2-(3-Ethoxyphenyl)ethynyl]pyridine-3-carbonyl]piperazin-1-yl]-N-[3-nitro-4-(2-phenylsulfanylethylamino)phenyl]sulfonylpyridazine-3-carboxamide], for which the “ASMS ratio (%) n = 1” value was 16.5% and the “ASMS ratio (%) n = 2” value stood at 0.5%.
